In patent US8076103B2, “Eukaryotic expression system for the incorporation of stable isotopes into proteins” (The Board of Trustees of the Leland Stanford Junior …, priority 2007, dated 2011):

Target: T1, human β2AR (Homo sapiens, UniProt P07550)
T1 construct: made in house; host or cells: Trichoplusia ni larvae orally infected with occluded recombinant baculovirus; crude membrane fraction
Experiment: Saturation binding of [^3H]-dihydroalprenolol to T. ni membranes expressing β2AR
Conditions: 4 days after oral infection
Description: This vector was used to produce orally infectious occluded baculovirus as follows. Sf9 cells were infected with above vector and allowed to grow for approximately four days until their nuclei were filled with polyhedral inclusion bodies (PIBs). The cells were pelleted by centrifugation, and lysed by resuspension and douncing in SDS (0.5%). PIBs were pelleted from the lysate by a high-speed spin, washed with sodium chloride (500 mM), and resuspended in distilled water. T. ni larvae were infected with occluded baculovirus by applying drops of purified PIBs (˜10^7 PIBs per cube) to small cubes of insect diet. Newly molted 5th instar larvae (mass ˜100 mg) were starved for 6 hours and then permitted to feed on the infected diet. […] These larvae were frozen in liquid nitrogen and stored at −80° C. Larvae were subsequently lysed and a crude membrane fraction was prepared. Saturation binding was performed with [^3H]dihydroalprenolol, a βAR antagonist.

T1 sequence (P07550 whole entry): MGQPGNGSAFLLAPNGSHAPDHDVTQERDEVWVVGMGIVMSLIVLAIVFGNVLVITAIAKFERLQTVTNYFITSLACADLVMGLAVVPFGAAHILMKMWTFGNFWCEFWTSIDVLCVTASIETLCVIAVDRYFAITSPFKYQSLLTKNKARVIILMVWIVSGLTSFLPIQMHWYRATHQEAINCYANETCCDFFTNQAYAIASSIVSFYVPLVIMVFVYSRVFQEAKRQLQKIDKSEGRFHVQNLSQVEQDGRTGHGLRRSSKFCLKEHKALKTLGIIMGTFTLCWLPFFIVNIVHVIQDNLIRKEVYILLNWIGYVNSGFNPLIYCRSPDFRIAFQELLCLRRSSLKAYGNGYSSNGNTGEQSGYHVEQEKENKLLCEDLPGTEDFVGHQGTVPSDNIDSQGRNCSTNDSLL

CCCc1ccccc1OCC(O)CNC(C)C (centres unmarked) [[^3H]-dihydroalprenolol]
Bmax: 16 pmol/mg total protein
Kd: 1.6 nM
